{
  "source": "paper PMC6277434",
  "about": "“Discovery of a potent HMG-CoA reductase degrader that eliminates statin-induced reductase accumulation and lowers cholesterol” (Nature Communications, 2018)",
  "assay_type_in_all_cases": "in vivo",
  "key": {"HMGCR": {"molecular_target": "T1, HMGCR (Mus musculus, UniProt Q01237)", "T1 construct": "from tissue; host or cells: mouse liver (membrane fraction)", "T1 sequence (Q01237 1-887)": "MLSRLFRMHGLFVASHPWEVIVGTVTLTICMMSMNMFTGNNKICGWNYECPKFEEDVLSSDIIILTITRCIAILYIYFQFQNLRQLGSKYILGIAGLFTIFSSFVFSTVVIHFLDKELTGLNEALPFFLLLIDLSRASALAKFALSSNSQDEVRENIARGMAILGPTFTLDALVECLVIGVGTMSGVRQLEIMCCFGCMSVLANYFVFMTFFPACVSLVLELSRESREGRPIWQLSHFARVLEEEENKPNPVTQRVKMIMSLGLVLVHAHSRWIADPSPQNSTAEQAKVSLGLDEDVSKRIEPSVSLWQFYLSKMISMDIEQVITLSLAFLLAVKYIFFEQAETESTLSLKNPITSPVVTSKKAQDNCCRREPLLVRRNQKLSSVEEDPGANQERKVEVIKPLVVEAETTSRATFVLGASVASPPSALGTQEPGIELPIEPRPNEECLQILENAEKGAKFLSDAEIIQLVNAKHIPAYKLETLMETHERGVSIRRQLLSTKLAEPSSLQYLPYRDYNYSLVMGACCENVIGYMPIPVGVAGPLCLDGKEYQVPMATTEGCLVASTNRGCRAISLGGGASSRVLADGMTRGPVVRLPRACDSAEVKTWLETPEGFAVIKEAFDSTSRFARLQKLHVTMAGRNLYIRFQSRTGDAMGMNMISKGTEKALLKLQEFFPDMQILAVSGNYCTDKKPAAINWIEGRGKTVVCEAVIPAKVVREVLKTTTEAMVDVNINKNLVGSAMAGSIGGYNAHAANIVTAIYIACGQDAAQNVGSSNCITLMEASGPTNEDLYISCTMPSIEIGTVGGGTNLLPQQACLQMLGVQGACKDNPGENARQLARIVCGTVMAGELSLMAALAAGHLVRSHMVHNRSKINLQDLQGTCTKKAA", "experiment": "Immunoblotting of hepatic HMGCR protein (liver membrane fractions) of gavaged mice"}, "[1]": {"test_system": "C57BL/6J mice fed MFMC diet", "experiment": "Diet-induced hyperlipidemia: serum and liver TC/TG and FPLC lipoprotein profile in mice on MFMC diet", "conditions": "for TC levels in liver, mean / TC levels in the serum, mean / TG levels in liver, mean / TG levels in the serum, mean / TC levels in liver, individual mice / TC levels in the serum, individual mice / TG levels in liver, individual mice / TG levels in the serum, individual mice: 60 mg/kg/day (each agent) gavage once daily 6 weeks; for TC levels in liver, individual mice / TC levels in the serum, individual mice / TG levels in liver, individual mice / TG levels in the serum, individual mice: 60 mg/kg/day; for total cholesterol (TC) and triglyceride (TG) levels in both serum and liver / cholesterol contents in VLDL, LDL and HDL (FPLC serum lipoprotein profile): 6 weeks; for total cholesterol (TC) and triglyceride (TG) levels in both serum and liver: in words; for cholesterol contents in VLDL, LDL and HDL (FPLC serum lipoprotein profile): pooled serum", "from_the_text": "(§1) Male C57BL/6 mice (8-week-old) were obtained from Shanghai Laboratory Animal Company (SLAC) (Shanghai, China). Male Ldlr^−/− mice (8-week-old) were obtained from Nanjing Biomedical Research Institute of Nanjing University (Nanjing, China). Mice had ad libitum access to water and standard chow diet (SLAC) unless mentioned otherwise. Special diets included medium-fat-medium-cholesterol diet (chow diet with10% fat, 0.2% cholesterol and 0.5% sodium cholate, custom made in SLAC), and western diet (20% fat, 1.25% cholesterol, 0.5% sodium cholate, D12109C, Research Diets). Mice were maintained in a pathogen-free environment and kept on a 12-h light/dark schedule. Mice were gavaged as described in figure legends with saline containing 0.5% methyl cellulose and 0.5% Tween-80. All mice were used in accordance with the guidelines approved by the Institutional Animal Care and Use Committee of Wuhan University.\n(§2) Mice were anesthetized and blood collection was performed. Serum was prepared from blood by centrifuging at 1500 × g for 10 min. Livers were harvested and homogenized in a 2:1 mixture of chloroform and methanol using Precellys 24 (Bertin). The organic phase was dried under N2 and liver lipids were reconstituted in ethanol. Total cholesterol and triglyceride levels in the serum and liver were determined using Cholesterol Assay Kit and Triglyceride Assay Kit (Shanghai Kehua Bio-engineering, China).\n(§3) Serum lipoproteins were separated by FPLC (AKTA, GE Healthcare) using Superdex 75 10/300 GL (GE Healthcare) column. One hundred microliters pooled serum from five mice per group was diluted with 200 μl PBS, and loaded to the column. Fractions were eluted with PBS at a constant rate of 0.2 ml min^–1, and collected with 300 μl per tube. 100 μl fractions were used to quantify the concentration of total cholesterol level with the Amplex Red Cholesterol Assay Kit (Invitrogen). The cholesterol distribution curves of lipoproteins were done with GraphPad Prism 6 software."}, "[2]": {"test_system": "Ldlr−/− mice on a western diet", "experiment": "Atherosclerosis model: Ldlr−/− mice on western diet (Sudan IV aorta lesions, TC/TG, FPLC)", "conditions": "for atherosclerotic lesions (en face Sudan IV staining of aortas), individual mice / atherosclerotic lesions (en face Sudan IV staining of aortas), mean: 60 mg/kg/day (each agent) gavage once daily 20 weeks; for aorta atherosclerotic lesions compared with vehicle / elevations of serum and liver TC and TG / serum cholesterol levels in VLDL, LDL and HDL (FPLC): 20 weeks; for aorta atherosclerotic lesions compared with vehicle: in words; for elevations of serum and liver TC and TG / serum cholesterol levels in VLDL, LDL and HDL (FPLC): Ldlr−/− mice, WD", "from_the_text": "as §1, §2\nTo examine aorta atherosclerotic lesions, the aortic tree was isolated and fixed with 4% PFA. After removing perivascular adipose tissues, the atherosclerotic lesions were stained with Sudan IV for 10 min and washed with 70% ethanol for 3 min. The aortic tree was pinned to the black wax-filled petri dish containing PBS and imaged under a stereoscopic microscope (Olympus SZX16). The atherosclerotic lesions were quantified with Image J software (NIH)[66].\nas §3"}},
  "note": "Where “and” joins values, the source holds several entries; their conditions need not be identical. Equal entries are not always repeated.",
  "data": [
    {"smiles": "C=CCC(O)(CC=C)CCCC(C)C1CCC2C3C(O)C=C4C(C)(C)C(O)CCC4(C)C3CCC12C", "note": "(stereo not drawn) [Cmpd 81]", "values": [
      {"measurement": "liver HMGCR protein fold change, mean", "setting": "HMGCR; C57BL/6J mice, chow diet, single agent 60 mg/kg/day gavage 10 days, vehicle = 1", "value": 0.5524},
      {"measurement": "decrease of liver HMGCR amount", "setting": "HMGCR; Cmpd 81 alone, 60 mg/kg/day, 10 days", "value": 50, "unit": "%"},
      {"measurement": "decrease of liver HMGCR relative to lovastatin-treated samples", "setting": "HMGCR; co-administration of Cmpd 81 with lovastatin, each 60 mg/kg/day, 10 days", "value": "> 13", "unit": "fold"},
      {"measurement": "liver HMGCR protein fold change, mean", "setting": "HMGCR; mouse, in vivo", "value": "~ 2"},
      {"measurement": "TC levels in liver, mean", "setting": "[1]", "value": 3.712},
      {"measurement": "TC levels in the serum, mean", "setting": "[1]", "value": 104.81},
      {"measurement": "TG levels in liver, mean", "setting": "[1]", "value": 12.3264},
      {"measurement": "TG levels in the serum, mean", "setting": "[1]", "value": 55.4414},
      {"measurement": "TC levels in liver, individual mice", "setting": "[1]", "value": "3.732 and 3.964 and 3.655 and 3.864 and 3.346"},
      {"measurement": "TC levels in the serum, individual mice", "setting": "[1]", "value": "111 and 100.379 and 112.009 and 105.661 and 95"},
      {"measurement": "TG levels in liver, individual mice", "setting": "[1]", "value": "12.9147 and 9.311 and 13.437 and 16.1354 and 9.834"},
      {"measurement": "TG levels in the serum, individual mice", "setting": "[1]", "value": "60.1534 and 51.6317 and 49.6138 and 57.1457 and 58.6623"},
      {"measurement": "total cholesterol (TC) and triglyceride (TG) levels in both serum and liver", "setting": "[1]", "value": "significantly lowered"},
      {"measurement": "cholesterol contents in VLDL, LDL and HDL (FPLC serum lipoprotein profile)", "setting": "[1]", "value": "reduced to similar levels"},
      {"measurement": "atherosclerotic lesions (en face Sudan IV staining of aortas), individual mice", "setting": "[2]", "value": "32.5011 and 38.2916 and 37.5217 and 25.3733 and 31"},
      {"measurement": "atherosclerotic lesions (en face Sudan IV staining of aortas), mean", "setting": "[2]", "value": 32.9375},
      {"measurement": "aorta atherosclerotic lesions compared with vehicle", "setting": "[2]", "value": "Significantly less aorta lesions"},
      {"measurement": "elevations of serum and liver TC and TG", "setting": "[2]", "value": "significant effects on alleviating the elevations"},
      {"measurement": "serum cholesterol levels in VLDL, LDL and HDL (FPLC)", "setting": "[2]", "value": "remarkably reduced"}
    ]},
    {"smiles": "CC[C@H](C)C(=O)O[C@H]1C[C@@H](C)C=C2C=C[C@H](C)[C@H](CC[C@@H]3C[C@@H](O)CC(=O)O3)[C@H]21", "note": "[Lovastatin, lovastatin]", "values": [
      {"measurement": "hepatic HMGCR protein level, mean", "setting": "HMGCR; C57BL/6J mice, 60 mg/kg/day gavage once daily 7 days, vehicle = 1, 60 mg/kg/day", "value": "58.4 ± 3.5 fold and 58.3968 fold"},
      {"measurement": "hepatic HMGCR protein level, mean", "setting": "HMGCR; C57BL/6J mice, 60 mg/kg/day gavage once daily 7 days, vehicle = 1, listed as lovastatin, 60 mg/kg/day", "value": 58, "unit": "fold"},
      {"measurement": "hepatic HMGCR protein level, individual mice", "setting": "HMGCR; C57BL/6J mice, 60 mg/kg/day gavage once daily 7 days, vehicle mean = 1, 60 mg/kg/day", "value": "61.3526 and 59.2668 and 54.571"},
      {"measurement": "liver HMGCR protein fold change, mean", "setting": "HMGCR; C57BL/6J mice, chow diet, single agent 60 mg/kg/day gavage 10 days, vehicle = 1, listed as Lova", "value": 32.3047},
      {"measurement": "liver HMGCR protein fold change, mean", "setting": "HMGCR; C57BL/6J mice, chow diet, single agent 60 mg/kg/day gavage 10 days, vehicle = 1, listed as lovastatin", "value": "more than 30"},
      {"measurement": "TC levels in liver, mean", "setting": "[1]", "value": 3.624},
      {"measurement": "TC levels in the serum, mean", "setting": "[1]", "value": 103.826},
      {"measurement": "TG levels in liver, mean", "setting": "[1]", "value": 12.4726},
      {"measurement": "TG levels in the serum, mean", "setting": "[1]", "value": 54.3007},
      {"measurement": "TC levels in liver, individual mice", "setting": "[1]", "value": "3.3 and 3.747 and 3.618 and 3.824 and 3.629"},
      {"measurement": "TC levels in the serum, individual mice", "setting": "[1]", "value": "108.623 and 105.887 and 100.644 and 93.2834 and 110.692"},
      {"measurement": "TG levels in liver, individual mice", "setting": "[1]", "value": "14.0603 and 12.8492 and 8.103 and 12.4763 and 14.8742"},
      {"measurement": "TG levels in the serum, individual mice", "setting": "[1]", "value": "51.0844 and 48 and 54.6444 and 61.1304 and 56.6444"},
      {"measurement": "total cholesterol (TC) and triglyceride (TG) levels in both serum and liver", "setting": "[1]", "value": "significantly lowered"},
      {"measurement": "cholesterol contents in VLDL, LDL and HDL (FPLC serum lipoprotein profile)", "setting": "[1]", "value": "reduced to similar levels"},
      {"measurement": "atherosclerotic lesions (en face Sudan IV staining of aortas), individual mice", "setting": "[2]", "value": "31.5731 and 31.0783 and 37.0572 and 32.3991 and 25"},
      {"measurement": "atherosclerotic lesions (en face Sudan IV staining of aortas), mean", "setting": "[2]", "value": 31.4215},
      {"measurement": "aorta atherosclerotic lesions compared with vehicle", "setting": "[2]", "value": "Significantly less aorta lesions"},
      {"measurement": "elevations of serum and liver TC and TG", "setting": "[2]", "value": "significant effects on alleviating the elevations"},
      {"measurement": "serum cholesterol levels in VLDL, LDL and HDL (FPLC)", "setting": "[2]", "value": "remarkably reduced"}
    ]}
  ]
}
